From paper PMC9873234, “Syntheses and Structure–Activity Relationships of N-Phenethyl-Quinazolin-4-yl-Amines as Potent Inhibitors of Cytochrome bd Oxidase in Mycobacterium tuberculosis” (Applied sciences (Basel, Switzerland), 2021)
Read-outs that look alike come from different tables or passages of the source.

What was measured:
Experiment in all cases: microbe, parasite or virus in culture
[1] = test system: T1, M. tuberculosis N0145; parameters: species or system M. bovis BCG, M. tuberculosis H37Rv or N0145
T1 construct: N0145 (clinical isolate)

[2] = test system: T2, M. tuberculosis H37Rv; parameters: species or system M. bovis BCG, M. tuberculosis H37Rv or N0145; settings: Mycobacterium tuberculosis, 15 h, read-out: Replicating ATP IC50 (µM) H37Rv / −Q203
T2 construct: H37Rv

[3] = test system: T3, M. bovis BCG; parameters: species or system M. tuberculosis H37Rv or N0145; settings: Mycobacterium tuberculosis variant bovis BCG, 15 h, read-out: BCG / −Q203
T3 construct: BCG

[4] = test system: T1, M. tuberculosis N0145; parameters: species or system M. bovis BCG, M. tuberculosis H37Rv or N0145; settings: Mycobacterium tuberculosis, N0145, 15 h; read-out: N0145 / –Q203
[5] = test system: T2, M. tuberculosis H37Rv; parameters: ATP depletion in replicating mycobacteria without Q203, BacTiter-Glo luminescence; settings: Mycobacterium tuberculosis, 15 h, read-out: Replicating ATP IC50 (µM) H37Rv / −Q203
[6] = test system: T3, M. bovis BCG; parameters: species or system M. tuberculosis H37Rv or N0145; settings: Mycobacterium tuberculosis variant bovis BCG, 15 h, read-out: BCG / −Q203; remark: listed apart in the source
[7] = Mycobacterium tuberculosis, N0145, 15 h; read-out: N0145 / –Q203

Row | Structure (SMILES) | IC50 [1, 7] [µM] | IC50 [2] [µM] | IC50 [3] [µM] | IC50 [4] [µM] | IC50 [5] [µM] | IC50 [6] [µM] | IC50 ([1]; Mycobacterium tuberculosis, N0145, 15 h, read-out: N0145 / –Q203) [µM]
1 | FC(F)(F)c1ccc(CCNc2ncnc3ccccc23)cc1 [6a, Quinazolin-4-yl{2-[4-(trifluoromethyl)phenyl]ethyl}amine] | > 25 | > 25 | > 25 | – | – | – | –
2 | FC(F)(F)Oc1ccc(CCNc2ncnc3ccccc23)cc1 [7a, Quinazolin-4-yl{2-[4-(trifluoromethoxy)phenyl]ethyl}amine] | > 25 | > 25 | > 25 | – | – | – | –
3 | Clc1ccc(CCNc2ncnc3ccccc23)cc1 [8a] | > 25 | > 25 | > 25 | – | – | – | –
4 | FS(F)(F)(F)(F)c1ccc(CCNc2ncnc3ccccc23)cc1 [9a] | > 25 | > 25 | > 25 | – | – | – | –
5 | Cc1ccc(CCNc2ncnc3ccccc23)cc1 [10a] | > 25 | > 25 | > 25 | – | – | – | –
6 | COc1ccc(CCNc2ncnc3ccccc23)cc1 [11a] | > 25 | > 25 | > 25 | – | – | – | –
7 | CC(C)(C)c1ccc(CCNc2ncnc3ccccc23)cc1 [12a, {2-[4-(tert-Butyl)phenyl]ethyl}quinazolin-4-ylamine] | > 25 | > 25 | > 25 | – | – | – | –
8 | FC(F)(F)Oc1cccc(CCNc2ncnc3ccccc23)c1 [13a] | > 25 | > 25 | > 25 | – | – | – | –
9 | CCOc1cccc(CCNc2ncnc3ccccc23)c1 [14a] | > 25 | > 25 | > 25 | – | – | – | –
10 | FC(F)(F)c1ccccc1CCNc1ncnc2ccccc12 [15a, Quinazolin-4-yl{2-[2-(trifluromethyl)phenyl]ethyl}amine] | > 25 | > 25 | > 25 | – | – | – | –
11 | Fc1ccc2ncnc(NCCc3ccc(OC(F)(F)F)cc3)c2c1 [16a] | – | – | – | > 25 | > 25 | > 25 | –
12 | Cc1ccc2ncnc(NCCc3ccc(OC(F)(F)F)cc3)c2c1 [17a] | – | – | – | > 25 | > 25 | > 25 | –
13 | COc1ccc2ncnc(NCCc3ccc(OC(F)(F)F)cc3)c2c1 [18a] | – | – | – | > 25 | > 25 | > 25 | –
14 | Fc1ccc2c(NCCc3ccc(OC(F)(F)F)cc3)ncnc2c1 [19a, (7-Fluoroquinazolin-4-yl){2-[4-(trifluormethoxy)phenyl]ethyl}amine] | – | – | – | > 25 | > 25 | > 25 | –
15 | FC(F)(F)Oc1ccc(CCNc2ncnc3cc(Cl)ccc23)cc1 [20a] | – | – | – | > 25 | > 25 | > 25 | –
16 | FC(F)(F)Oc1ccc(CCNc2ncnc3cc(Br)ccc23)cc1 [21a] | – | – | – | > 25 | > 25 | > 25 | –
17 | FC(F)(F)Oc1ccc(CCNc2ncnc3cc(C(F)(F)F)ccc23)cc1 [22a] | – | – | – | > 25 | > 25 | > 25 | –
18 | COc1ccc2c(NCCc3ccc(OC(F)(F)F)cc3)ncnc2c1 [23a] | – | – | – | > 25 | > 25 | > 25 | –
19 | Cc1nc(NCCc2ccc(OC(F)(F)F)cc2)c2ccccc2n1 [24a] | – | – | – | 8.2 ± 0.654 | 7.5 ± 1.02 | 12.2 ± 0.737 | –
20 | FC(F)(F)Oc1ccc(CCNc2nc(C3CC3)nc3ccccc23)cc1 [25a] | – | – | – | 7.3 ± 1.05 | 7.6 ± 1.03 | 8.5 ± 1.53 | –
21 | Cc1nc(NCCc2ccc(OC(F)(F)F)cc2)c2ccc(F)cc2n1 [26a] | – | – | – | > 25 | 23.6 ± 7.81 | > 25 | –
22 | COc1nc2ccc(Br)cc2cc1[C@@H](c1ccccc1)[C@@](O)(CCN(C)C)c1cccc2ccccc12 [BDQ] | 0.05 ± 0.003 | 0.06 ± 0.019 | 0.17 ± 0.019 | – | – | – | –
23 | CC(C)=CCC/C(C)=C/CC/C(C)=C/Cc1c(C)[nH]c2ccccc2c1=O [aurachin D] | > 25 | 5.5 ± 1.11 | > 25 | – | – | – | –
24 | FC(F)(F)c1ccc(Oc2ccc(Nc3ncnc4ccccc34)cc2)cc1 [compound 2] | > 25 | > 25 | > 25 | – | – | – | –
25 | c1ccc(CCNc2ncnc3ccccc23)cc1 [compound 3] | – | > 25 | > 25 | – | – | – | > 25
